Measurements: PubChem BioAssay (NCI)
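Test compounds were applied to cells in 96-well plates for 48 hours at 5 doses. GI50 is the concentration that inhibits growth by half. TGI is the concentration that stops growth completely.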

Tests used:
Experiment in all cases: growth of human tumour cells (NCI), 48 h
A498 renal = system: A498 renal
CAKI-1 renal = system: CAKI-1 renal
HT29 colon = system: HT29 colon
M14 melanoma = system: M14 melanoma
SK-MEL-2 melanoma = system: SK-MEL-2 melanoma
SW-620 colon = system: SW-620 colon
MDA-MB-231 breast = system: MDA-MB-231 breast
COLO 205 colon = system: COLO 205 colon
NCI-H460 lung = system: NCI-H460 lung
MDA-N = system: MDA-N
EKVX NSCLC = system: EKVX NSCLC
HOP-62 NSCLC = system: HOP-62 NSCLC
HCT-116 colon = system: HCT-116 colon
U251 CNS = system: U251 CNS
SN12C renal = system: SN12C renal
NCI-H522 lung = system: NCI-H522 lung
OVCAR-3 ovarian = system: OVCAR-3 ovarian
MOLT-4 leukemia = system: MOLT-4 leukemia
RXF 393 renal = system: RXF 393 renal
KM12 colon = system: KM12 colon
RPMI-8226 leukemia = system: RPMI-8226 leukemia
BT-549 breast = system: BT-549 breast
MALME-3M melanoma = system: MALME-3M melanoma
SK-OV-3 ovarian = system: SK-OV-3 ovarian
NCI-H226 lung = system: NCI-H226 lung
OVCAR-4 ovarian = system: OVCAR-4 ovarian
TK-10 renal = system: TK-10 renal
HCC-2998 colon = system: HCC-2998 colon
SNB-75 CNS = system: SNB-75 CNS
HCT-15 colon = system: HCT-15 colon
OVCAR-8 ovarian = system: OVCAR-8 ovarian
K-562 leukemia = system: K-562 leukemia
A549 NSCLC = system: A549 NSCLC
NCI-H23 lung = system: NCI-H23 lung
LOX IMVI melanoma = system: LOX IMVI melanoma
SF-539 CNS = system: SF-539 CNS
HL-60(TB) leukemia = system: HL-60(TB) leukemia
SF-268 CNS = system: SF-268 CNS
SNB-19 CNS = system: SNB-19 CNS
DU-145 prostate = system: DU-145 prostate
NCI/ADR-RES ovarian = system: NCI/ADR-RES ovarian
UACC-62 melanoma = system: UACC-62 melanoma
MCF7 breast = system: MCF7 breast
SK-MEL-28 melanoma = system: SK-MEL-28 melanoma
MDA-MB-435 = system: MDA-MB-435
SK-MEL-5 melanoma = system: SK-MEL-5 melanoma
T-47D breast = system: T-47D breast
CCRF-CEM leukemia = system: CCRF-CEM leukemia
SF-295 CNS = system: SF-295 CNS
ACHN renal = system: ACHN renal
UO-31 renal = system: UO-31 renal
HS 578T breast = system: HS 578T breast
SR leukemia = system: SR leukemia
OVCAR-5 ovarian = system: OVCAR-5 ovarian
UACC-257 melanoma = system: UACC-257 melanoma
PC-3 prostate = system: PC-3 prostate
786-0 renal = system: 786-0 renal
IGROV1 ovarian = system: IGROV1 ovarian

SMILES: CCc1c2c(nc3cc4c(cc13)OCO4)-c1cc3c(c(=O)n1C2)COC(=O)[C@@]3(CC)OC(=O)CN
- GI50 (A498 renal): < 10.7 nM
- TGI (A498 renal): 166 nM
- GI50 (CAKI-1 renal): < 10 nM
- GI50 (HT29 colon): < 10 nM
- TGI (HT29 colon): 3830 nM
- GI50 (M14 melanoma): < 10 nM
- TGI (M14 melanoma): < 24.7 nM
- GI50 (SK-MEL-2 melanoma): 95.4 nM
- TGI (SK-MEL-2 melanoma): 998 nM
- GI50 (SW-620 colon): < 13 nM
- GI50 (MDA-MB-231 breast): 195 nM
- TGI (MDA-MB-231 breast): 15000 nM
- GI50 (COLO 205 colon): 133 nM
- TGI (COLO 205 colon): 1130 nM
- GI50 (NCI-H460 lung): < 10 nM
- TGI (NCI-H460 lung): < 10 nM
- GI50 (MDA-N): < 10 nM
- TGI (MDA-N): 2180 nM
- GI50 (EKVX NSCLC): 32.1 nM
- TGI (EKVX NSCLC): > 100000 nM
- GI50 (HOP-62 NSCLC): < 10 nM
- TGI (HOP-62 NSCLC): < 10 nM
- GI50 (HCT-116 colon): 21.4 nM
- TGI (HCT-116 colon): 66.6 nM
- GI50 (U251 CNS): < 10 nM
- TGI (U251 CNS): 124 nM
- GI50 (SN12C renal): < 10 nM
- TGI (SN12C renal): 34 nM
- GI50 (NCI-H522 lung): < 10 nM
- TGI (NCI-H522 lung): 239 nM
- GI50 (OVCAR-3 ovarian): < 10 nM
- TGI (OVCAR-3 ovarian): 315 nM
- GI50 (MOLT-4 leukemia): < 10 nM
- TGI (MOLT-4 leukemia): < 10 nM
- GI50 (RXF 393 renal): < 10 nM
- TGI (RXF 393 renal): < 32.4 nM
- GI50 (KM12 colon): < 14.3 nM
- TGI (KM12 colon): 309 nM
- GI50 (RPMI-8226 leukemia): < 10 nM
- TGI (RPMI-8226 leukemia): 154 nM
- GI50 (BT-549 breast): < 10 nM
- TGI (BT-549 breast): < 36.6 nM
- GI50 (MALME-3M melanoma): < 15 nM
- TGI (MALME-3M melanoma): 1430 nM
- GI50 (SK-OV-3 ovarian): < 10 nM
- TGI (SK-OV-3 ovarian): < 18.5 nM
- GI50 (NCI-H226 lung): < 10 nM
- TGI (NCI-H226 lung): < 10 nM
- GI50 (OVCAR-4 ovarian): 24.4 nM
- TGI (OVCAR-4 ovarian): 711 nM
- GI50 (TK-10 renal): 178 nM
- TGI (TK-10 renal): 20000 nM
- GI50 (HCC-2998 colon): < 11.2 nM
- TGI (HCC-2998 colon): 194 nM
- GI50 (SNB-75 CNS): < 10 nM
- TGI (SNB-75 CNS): < 45 nM
- GI50 (HCT-15 colon): 23.6 nM
- TGI (HCT-15 colon): > 100000 nM
- GI50 (OVCAR-8 ovarian): < 10 nM
- TGI (OVCAR-8 ovarian): 131 nM
- GI50 (K-562 leukemia): < 10 nM
- TGI (K-562 leukemia): 5650 nM
- GI50 (A549 NSCLC): < 10 nM
- TGI (A549 NSCLC): 149 nM
- GI50 (NCI-H23 lung): < 10 nM
- TGI (NCI-H23 lung): < 15.8 nM
- GI50 (LOX IMVI melanoma): < 10 nM
- TGI (LOX IMVI melanoma): 90.2 nM
- GI50 (SF-539 CNS): < 10 nM
- TGI (SF-539 CNS): < 10 nM
- GI50 (HL-60(TB) leukemia): < 10 nM
- TGI (HL-60(TB) leukemia): < 10 nM
- GI50 (SF-268 CNS): < 10 nM
- GI50 (SNB-19 CNS): < 10 nM
- GI50 (DU-145 prostate): < 10 nM
- TGI (DU-145 prostate): 42.6 nM
- GI50 (NCI/ADR-RES ovarian): < 10 nM
- TGI (NCI/ADR-RES ovarian): < 10.4 nM
- GI50 (UACC-62 melanoma): < 22 nM
- GI50 (MCF7 breast): < 10 nM
- TGI (MCF7 breast): < 34.6 nM
- GI50 (SK-MEL-28 melanoma): 101 nM
- GI50 (MDA-MB-435): < 10 nM
- TGI (MDA-MB-435): 1230 nM
- GI50 (SK-MEL-5 melanoma): < 10 nM
- TGI (SK-MEL-5 melanoma): 37 nM
- GI50 (T-47D breast): < 10 nM
- TGI (T-47D breast): 512 nM
- GI50 (CCRF-CEM leukemia): < 10 nM
- TGI (CCRF-CEM leukemia): < 10 nM
- GI50 (SF-295 CNS): < 10 nM
- TGI (SF-295 CNS): < 16.6 nM
- GI50 (ACHN renal): < 10 nM
- TGI (ACHN renal): < 10 nM
- GI50 (UO-31 renal): < 10 nM
- TGI (UO-31 renal): 79.4 nM
- GI50 (HS 578T breast): 130 nM
- GI50 (SR leukemia): < 10 nM
- TGI (SR leukemia): < 38.9 nM
- GI50 (OVCAR-5 ovarian): < 10 nM
- TGI (OVCAR-5 ovarian): 417 nM
- GI50 (UACC-257 melanoma): < 15.4 nM
- TGI (UACC-257 melanoma): 286 nM
- GI50 (PC-3 prostate): < 10 nM
- TGI (PC-3 prostate): > 35500 nM
- GI50 (786-0 renal): < 10 nM
- TGI (786-0 renal): < 12.7 nM

SMILES: CC1C(c2ccc3c(c2)OCO3)c2cc3c(cc2OC1N1CCCC1)OCO3 (stereo not given)
- TGI (CAKI-1 renal): 38600 nM
- TGI (HT29 colon): > 100000 nM
- TGI (M14 melanoma): 57600 nM
- TGI (SK-MEL-2 melanoma): 90400 nM
- TGI (SW-620 colon): > 100000 nM
- TGI (COLO 205 colon): > 100000 nM
- TGI (NCI-H460 lung): > 100000 nM
- TGI (MDA-N): 52300 nM
- TGI (EKVX NSCLC): > 100000 nM
- TGI (HOP-62 NSCLC): > 100000 nM
- TGI (HCT-116 colon): 54800 nM
- TGI (SN12C renal): > 100000 nM
- TGI (NCI-H522 lung): 80400 nM
- TGI (OVCAR-3 ovarian): > 100000 nM
- TGI (MOLT-4 leukemia): 69900 nM
- TGI (KM12 colon): > 100000 nM
- TGI (RPMI-8226 leukemia): 73200 nM
- TGI (TK-10 renal): > 100000 nM
- TGI (HCC-2998 colon): 49100 nM
- TGI (SNB-75 CNS): 61700 nM
- TGI (HCT-15 colon): > 100000 nM
- TGI (OVCAR-8 ovarian): > 100000 nM
- TGI (K-562 leukemia): 61400 nM
- TGI (A549 NSCLC): > 100000 nM
- TGI (NCI-H23 lung): > 100000 nM
- TGI (LOX IMVI melanoma): > 100000 nM
- TGI (SF-539 CNS): 50900 nM
- TGI (SF-268 CNS): > 100000 nM
- TGI (SNB-19 CNS): > 100000 nM
- TGI (DU-145 prostate): > 100000 nM
- TGI (NCI/ADR-RES ovarian): 87700 nM
- TGI (UACC-62 melanoma): > 100000 nM
- TGI (MCF7 breast): > 100000 nM
- TGI (SK-MEL-28 melanoma): > 100000 nM
- TGI (MDA-MB-435): 23700 nM
- TGI (SK-MEL-5 melanoma): 47200 nM
- TGI (IGROV1 ovarian): > 100000 nM
- TGI (T-47D breast): > 100000 nM
- TGI (CCRF-CEM leukemia): 76100 nM
- TGI (SF-295 CNS): > 100000 nM
- TGI (ACHN renal): > 100000 nM
- TGI (UO-31 renal): 73000 nM
- TGI (HS 578T breast): 44500 nM
- TGI (SR leukemia): 89800 nM
- TGI (OVCAR-5 ovarian): > 100000 nM
- TGI (UACC-257 melanoma): > 100000 nM
- TGI (PC-3 prostate): > 100000 nM
- TGI (786-0 renal): > 100000 nM
